Source: article PMC10786919, “Design-rules for stapled peptides with in vivo activity and their application to Mdm2/X antagonists” (Nature Communications, 2024)
Converted amounts (≈) assume the structure as drawn. Read-outs that look alike come from different tables or passages of the source. Positions of bridges follow the written chain, without caps; N, C: chain ends. Non-standard residues stand in square brackets, D forms with d. Residues, ends and D or L forms follow the SMILES beside them. Lys(N3) = [N-]=[N+]=NCCCC[C@H](N)C(=O)O; R8 = C=CCCCCCC[C@@](C)(N)C(=O)O; Cba = N[C@@H](CC1CCC1)C(=O)O; S5 = C=CCCC[C@](C)(N)C(=O)O; βAla = NCCC(=O)O

Tests used:
[1] = Experimental LogD (partition coefficient); conditions: for logD: not stated, Partition Coeff LogD
[2] = physchem
[3] = Lactate dehydrogenase (LDH) release assay; type: cell-based
Summary of the method: (§1)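 LDH release, fluorometric membrane-integrity read-out; HCT116 with stable p53-responsive β-lactamase reporter; 8000 cells/well; 0.5% DMSO final; geometric mean, n≥3 biological replicates.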

[4] = test system: HCT116 cells; assay: Lactate dehydrogenase (LDH) release assay; type: cell-based
Summary of the method: as §1

[5] = Solubility assay (kinetic solubility, PBS pH 7); type: physicochemical; conditions: for solubility kinetic: pH 7, aqueous buffer, kinetic from dmso stock, read-out: Solubility
Summary of the method: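 Quantitation uses an external standard at 100 µM, prepared from 10 mM stock in acetonitrile:methanol:DMSO (10:80:10). Solubility (µM) = (peak area of sample ÷ peak area of standard) × standard concentration.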

[6] = Nanoclick permeability assay
Summary of the method: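 Azido-peptide permeability was read as loss of NanoBRET signal (donor 450 nm, acceptor 610 nm) after adding NanoBret618-azide at 10 μM final.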

[7] = physchem; remark: listed apart in the source
[8] = 0% FBS 4Hr, read-out: LDH: Cytotoxicity assay EC50
[9] = 10% FBS 4Hr, read-out: LDH: Cytotoxicity assay EC50

Row | SMILES | logD [1] | EPSA [2] [A^2] | EC50 ([3]; LDH: Cytotoxicity assay: EC50) [nM] | LDH: Cytotoxicity assay: % Effect [4] [%] | solubility kinetic ([5]; pH 7, PBS) [µM] | cell entry EC50 [6] [nM] | EPSA [7] [A^2] | EC50 [3, 8] [nM] | EC50 [3, 9] [nM] | LDH: Cytotoxicity assay % Effect ([4]; 0% FBS 4Hr) [%] | LDH: Cytotoxicity assay % Effect ([4]; 0% FBS 16Hr) [%] | LDH: Cytotoxicity assay % Effect ([4]; 10% FBS 4Hr) [%] | Solubility [5] | Solubility ([5]; pH 7, PBS) | Partition Coeff LogD [1] | Partition Coeff LogD ([1]; experimental) | EC50 ([3]; 4 hours, 0% serum, read-out: LDH Cytotoxicity assay EC50) [nM]
1 | CC(=O)N[C@@H](CC(C)C)C(=O)N[C@H](C(=O)N[C@@H](Cc1ccccc1)C(=O)N[C@]1(C)CCCCCCC=CCCC[C@@](C)(C(=O)N[C@@H](CO)C(=O)N[C@@H](C)C(=O)N[C@@H](C)C(N)=O)NC(=O)[C@H](CC2CCC2)NC(=O)[C@H](CC(C)C)NC(=O)[C@H](CCC(N)=O)NC(=O)[C@H](Cc2c[nH]c3ccccc23)NC(=O)[C@H](C)NC(=O)[C@H](CCC(=O)O)NC1=O)[C@@H](C)O [MP-363] (Ac-LTF[R8]EAWQL[Cba][S5]SAA-NH2; staple 4-11) | 2.85 | 195 | > 50600 | 4.97 |  |  |  |  |  |  |  |  |  |  |  |  | 
2 | CC(=O)N[C@@H](CC(C)C)C(=O)N[C@H](C(=O)N[C@@H](Cc1ccccc1)C(=O)N[C@]1(C)CCCCCCC=CCCC[C@@](C)(C(=O)N[C@@H](CO)C(=O)N[C@@H](C)C(=O)N[C@@H](C)C(N)=O)NC(=O)[C@H](CC2CCC2)NC(=O)[C@H](C)NC(=O)[C@H](C)NC(=O)[C@H](Cc2c[nH]c3ccccc23)NC(=O)[C@H](Cc2ccc(O)cc2)NC(=O)[C@H](CCC(=O)O)NC1=O)[C@@H](C)O [MP-865] (Ac-LTF[R8]EYWAA[Cba][S5]SAA-NH2; staple 4-11) | 2.94 | 211 | > 50600 |  | 84.5 (≈ 143 µg/mL) |  |  |  |  |  |  |  |  |  |  |  | 
3 | CC(=O)N[C@@H](CC(C)C)C(=O)N[C@H](C(=O)N[C@@H](Cc1ccccc1)C(=O)N[C@]1(C)CCCCCCC=CCCC[C@@](C)(C(=O)N[C@@H](CO)C(=O)N[C@@H](C)C(=O)N[C@@H](C)C(N)=O)NC(=O)[C@H](CC2CCC2)NC(=O)[C@H](CCC(N)=O)NC(=O)[C@H](CCC(N)=O)NC(=O)[C@H](Cc2c[nH]c3ccccc23)NC(=O)[C@H](Cc2ccc(O)cc2)NC(=O)[C@H](CCC(=O)O)NC1=O)[C@@H](C)O [MP-864] (Ac-LTF[R8]EYWQQ[Cba][S5]SAA-NH2; staple 4-11) | 2.59 | 212 | > 50600 |  | 86.5 (≈ 156 µg/mL) |  |  |  |  |  |  |  |  |  |  |  | 
4 | CC(=O)N[C@@H](CCCCN=[N+]=[N-])C(=O)NCCC(=O)N[C@@H](CC(C)C)C(=O)N[C@H](C(=O)N[C@@H](Cc1ccccc1)C(=O)N[C@]1(C)CCCCCCC=CCCC[C@@](C)(C(=O)N[C@@H](CO)C(=O)N[C@@H](C)C(=O)N[C@@H](C)C(N)=O)NC(=O)[C@H](CC2CCC2)NC(=O)[C@H](CCC(N)=O)NC(=O)[C@H](C)NC(=O)[C@H](Cc2c[nH]c3ccccc23)NC(=O)[C@H](Cc2ccc(O)cc2)NC(=O)[C@H](Cc2c[nH]cn2)NC1=O)[C@@H](C)O [MP-175, AZIDE-ATSP-7041 (E5H)] | 3.42 |  |  |  | 2 (≈ 3.96 µg/mL) | 316 | 214 | > 50000 | > 50000 | 2.645 | 7.95 | -1.124 |  |  |  |  | 
5 | CC(=O)N[C@@H](CCCCN=[N+]=[N-])C(=O)NCCC(=O)N[C@@H](CC(C)C)C(=O)N[C@H](C(=O)N[C@@H](Cc1ccccc1)C(=O)N[C@]1(C)CCCCCCC=CCCC[C@@](C)(C(=O)N[C@@H](CO)C(=O)N[C@@H](C)C(=O)N[C@@H](C)C(N)=O)NC(=O)[C@H](CC2CCC2)NC(=O)[C@H](CCC(N)=O)NC(=O)[C@H](C)NC(=O)[C@H](Cc2c[nH]c3ccccc23)NC(=O)[C@H](Cc2ccc(O)cc2)NC(=O)[C@H](C)NC1=O)[C@@H](C)O [MP-954, AZIDE-ATSP-7041 (E5A)] (Ac-[Lys(N3)][βAla]LTF[R8]AYWAQ[Cba][S5]SAA-NH2; staple 6-13) |  |  |  |  |  | 217 | 205 | > 50000 | > 50000 | 9.323 | -0.76 | 15.23 | P.B. | Poorly Behaved | Poorly Behaved | P.B. | 
6 | CC(=O)N[C@@H](CCCCN=[N+]=[N-])C(=O)NCCC(=O)N[C@@H](CC(C)C)C(=O)N[C@@H](C)C(=O)N[C@@H](Cc1ccccc1)C(=O)N[C@]1(C)CCCCCCC=CCCC[C@@](C)(C(=O)N[C@@H](C)C(=O)N[C@@H](C)C(=O)N[C@@H](C)C(N)=O)NC(=O)[C@H](CC2CCC2)NC(=O)[C@H](CCC(N)=O)NC(=O)[C@H](C)NC(=O)[C@H](Cc2c[nH]c3ccccc23)NC(=O)[C@H](Cc2ccc(O)cc2)NC(=O)[C@H](CCC(=O)O)NC1=O [MP-963, AZIDE-ATSP-7041 (T2A,S12A)] (Ac-[Lys(N3)][βAla]LAF[R8]EYWAQ[Cba][S5]AAA-NH2; staple 6-13) | 2.97 |  |  |  | 100 (≈ 192 µg/mL) | 177 | 220 | > 50000 |  | 11.69 | -0.52 |  |  |  |  |  | 
7 | CC(=O)N[C@@H](CCCCN=[N+]=[N-])C(=O)NCCC(=O)N[C@@H](CC(C)C)C(=O)N[C@@H](C)C(=O)N[C@@H](Cc1ccccc1)C(=O)N[C@]1(C)CCCCCCC=CCCC[C@@](C)(C(=O)N[C@@H](CO)C(=O)N[C@@H](C)C(=O)N[C@@H](C)C(N)=O)NC(=O)[C@H](CC2CCC2)NC(=O)[C@H](CCC(N)=O)NC(=O)[C@H](C)NC(=O)[C@H](Cc2c[nH]c3ccccc23)NC(=O)[C@H](Cc2ccc(O)cc2)NC(=O)[C@H](C)NC1=O [MP-961, AZIDE-ATSP-7041 (T2A,E5A)] (Ac-[Lys(N3)][βAla]LAF[R8]AYWAQ[Cba][S5]SAA-NH2; staple 6-13) |  |  |  |  |  | 272 | 206 | > 50000 |  | 4.443 |  |  | P.B. | Poorly Behaved | Poorly Behaved | P.B. | 
8 | CC(=O)N[C@@H](CCCCN=[N+]=[N-])C(=O)NCCC(=O)N[C@@H](CC(C)C)C(=O)N[C@@H](C)C(=O)N[C@@H](Cc1ccccc1)C(=O)N[C@]1(C)CCCCCCC=CCCC[C@@](C)(C(=O)N[C@@H](CO)C(=O)N[C@@H](C)C(=O)N[C@@H](C)C(N)=O)NC(=O)[C@H](CC2CCC2)NC(=O)[C@H](C)NC(=O)[C@H](C)NC(=O)[C@H](Cc2c[nH]c3ccccc23)NC(=O)[C@H](Cc2ccc(O)cc2)NC(=O)[C@H](CCC(=O)O)NC1=O [MP-962, AZIDE-ATSP-7041 (T2A,Q9A)] (Ac-[Lys(N3)][βAla]LAF[R8]EYWAA[Cba][S5]SAA-NH2; staple 6-13) | 2.96 |  |  |  | 77.5 (≈ 146 µg/mL) | 77.6 | 216 | > 50000 |  | 4.327 |  |  |  |  |  |  | 
9 | CC(=O)N[C@@H](CCCCN=[N+]=[N-])C(=O)NCCC(=O)N[C@@H](C)C(=O)N[C@H](C(=O)N[C@@H](Cc1ccccc1)C(=O)N[C@]1(C)CCCCCCC=CCCC[C@@](C)(C(=O)N[C@@H](CO)C(=O)N[C@@H](C)C(=O)N[C@@H](C)C(N)=O)NC(=O)[C@H](CC2CCC2)NC(=O)[C@H](C)NC(=O)[C@H](C)NC(=O)[C@H](Cc2c[nH]c3ccccc23)NC(=O)[C@H](Cc2ccc(O)cc2)NC(=O)[C@H](CCC(=O)O)NC1=O)[C@@H](C)O [MP-959, AZIDE-ATSP-7041 (L1A,Q9A)] (Ac-[Lys(N3)][βAla]ATF[R8]EYWAA[Cba][S5]SAA-NH2; staple 6-13) | 2.79 |  |  |  | 106 (≈ 197 µg/mL) | 126 | 218 | 976 |  | 12.11 | 5.8 |  |  |  |  |  | 980
